# Experimental data from patent publication US20180360782A1, “METHOD OF MODULATING RIBONUCLEOTIDE REDUCTASE” (CASE WESTERN RESERVE UNIVERSITY, priority 2015, published 2018).
# Read-outs that look alike come from different tables or passages of the source. Square brackets hold non-standard residues; d marks the D form. Peptide text beside a SMILES is read from it. ξ: configuration not given here. ξY = NC(Cc1ccc(O)cc1)C(=O)O; Sar = CNCC(=O)O
# Legend:
# hRR (hRRM1 and hRRM2) [1] = molecular target: T1, hRR (hRRM1 and hRRM2) (Homo sapiens, UniProt P23921); assay: biochemical
# T1 sequence (P23921 1-792): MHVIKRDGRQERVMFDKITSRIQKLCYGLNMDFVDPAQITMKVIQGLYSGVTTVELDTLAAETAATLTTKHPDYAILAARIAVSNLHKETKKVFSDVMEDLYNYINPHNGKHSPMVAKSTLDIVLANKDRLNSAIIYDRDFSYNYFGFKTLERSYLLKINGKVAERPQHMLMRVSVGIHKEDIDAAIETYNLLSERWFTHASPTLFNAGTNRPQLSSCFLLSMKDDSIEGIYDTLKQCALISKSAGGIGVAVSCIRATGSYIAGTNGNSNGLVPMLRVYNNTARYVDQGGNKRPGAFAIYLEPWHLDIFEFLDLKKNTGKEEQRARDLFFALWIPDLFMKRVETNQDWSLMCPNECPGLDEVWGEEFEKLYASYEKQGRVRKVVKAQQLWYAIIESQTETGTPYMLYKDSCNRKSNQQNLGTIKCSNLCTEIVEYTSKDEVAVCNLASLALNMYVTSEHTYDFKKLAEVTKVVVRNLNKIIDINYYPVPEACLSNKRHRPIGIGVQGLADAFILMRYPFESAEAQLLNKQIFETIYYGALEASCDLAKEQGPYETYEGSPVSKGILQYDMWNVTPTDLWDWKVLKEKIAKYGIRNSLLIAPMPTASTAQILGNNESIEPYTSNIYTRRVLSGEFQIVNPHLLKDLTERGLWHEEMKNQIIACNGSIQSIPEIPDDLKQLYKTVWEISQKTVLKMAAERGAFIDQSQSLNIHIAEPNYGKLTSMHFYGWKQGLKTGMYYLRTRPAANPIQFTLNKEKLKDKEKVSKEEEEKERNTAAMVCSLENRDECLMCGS
# T1 sequence (P31350 1-389 partner): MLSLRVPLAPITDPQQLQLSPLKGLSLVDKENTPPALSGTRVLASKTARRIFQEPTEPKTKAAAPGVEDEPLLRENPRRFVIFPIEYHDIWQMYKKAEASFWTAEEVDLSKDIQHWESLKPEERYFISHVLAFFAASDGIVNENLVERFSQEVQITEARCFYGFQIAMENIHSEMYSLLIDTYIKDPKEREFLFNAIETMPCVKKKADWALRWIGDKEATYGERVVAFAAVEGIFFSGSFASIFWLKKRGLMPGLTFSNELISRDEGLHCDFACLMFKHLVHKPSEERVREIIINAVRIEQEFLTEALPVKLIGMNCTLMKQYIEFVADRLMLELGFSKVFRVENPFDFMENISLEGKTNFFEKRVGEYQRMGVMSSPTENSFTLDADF
# Protocol: (§2) The buffer solution (50 mM HEPES at pH 7.6, 5% (v/v) glycerol, 0.1M KCl) and the hRRM2 protein in the buffer solution were prepared under deoxygenated conditions. Both solutions were taken into the glove box and FeNH4SO4 was dissolved in the buffer solution. 5 equivalents of Fe (II) per hRRM2 dimer from FeNH4SO4 (determined by Ferrozine assay) was added to the protein solution and incubated at 4° C. in the glove box. Upon removal of the protein from the glove box, freshly prepared O2-saturated buffer solution (50 mM HEPES at pH 7.6, 5% (v/v) glycerol, 0.1M KCl) was added. Excess iron was removed by S200 10/300 size exclusion chromatography. […] The reaction mixture was pre-incubated for 3 min at 37° C., and 30 μL aliquots were sampled at fixed time intervals after initiating the reaction. Reactions were quenched by immersion in a boiling water bath, cooling, and treatment with alkaline phosphatase. The product ^14-dADP that formed during the reaction was separated from substrate-ADP using boronate affinity chromatography. ^14-dADP was quantified by liquid scintillation counting using a Beckman LS6500 liquid scintillation counter.
# (§3) Briefly, boronate chromatography was used to separate the product.
# RR = molecular target: T2, RR (Homo sapiens, UniProt P23921); assay: In Vivo RR IC50 (Table 2); type: cell-based; conditions: In Vivo RR IC50^b (μM)
# T2 construct: endogenous in cells; host or cells: established human cancer cell lines (MDA-MB-231, HCT-116; also A549, Panc1)
# T2 sequence (P23921 1-792): T1 sequence (P23921 1-792)
# T2 sequence (P31350 1-389 partner): T1 sequence (P31350 1-389 partner)
# [2] = test system: MDA-MB-231 and HCT-116 cell lines; assay: Growth inhibition screening assay (In Cell IC50); type: cell-based, human; conditions: 3 days with compound; for IC50: Homo sapiens, 72 h
# Protocol: (§1) Cell were maintained in standard tissue culture media (RPMI1640, +10% fetal bovine serum, plus antibiotic) and grown in a standard humidified 5% CO2 incubator at 37° C. Cells were regularly tested using the MycoAlert detection kit (Lonza Biologics) and shown to be mycoplasma-free. Initial compound screening was performed using both MDA-MB-23 land HCT-116 cell lines. For moderate throughput screening (up to 120 drugs per experiment), cells were seeded into 96 well plates and allowed to attach overnight. The following day media was removed and replaced with fresh compound containing media. Each compound was tested against both cell lines at 3 concentrations; 1 μM, 10 μM and 50 μM, in duplicate. Cells were incubated with compound containing media for three days in a standard 5% CO2 tissue culture incubator. Cell growth was assessed after 3 days using the DNA dye binding assay, as originally described by LaBarca and Paigen. Relative growth was independently calculated for each cell line, based on DNA content from corresponding cells grown in control media plus diluent (DMSO). Additional growth inhibition experiments utilized either the DNA binding assay or the Promega CellTiter 96® (MTT reduction) assay, with similar results. For detailed growth inhibition assays, cells (1500-2500 depending on the growth characteristics of the cell line) were seeded in standard 96 well tissue culture plates and allowed to attach overnight. The following day media was removed and replaced with drug containing media. Each dose group consisted of 5 replicate wells, and results are reported a Relative Growth, calculated as DNA or MTT reduction per well, divided by the signal from untreated cells, both harvested 3 days after drug administration.
# [3] = test system: MDA-MB-231, HCT116, A549 and Panc1 cell lines; assay: Detailed growth inhibition studies, median effect dose; type: cell-based; conditions: Homo sapiens; for IC50: 72 h, read-out: median effect dose (Dm), growth inhibitory activity
# Protocol: Cell were maintained in standard tissue culture media (RPMI1640, +10% fetal bovine serum, plus antibiotic) and grown in a standard humidified 5% CO2 incubator at 37° C. […] For moderate throughput screening (up to 120 drugs per experiment), cells were seeded into 96 well plates and allowed to attach overnight. The following day media was removed and replaced with fresh compound containing media. Each compound was tested against both cell lines at 3 concentrations; 1 μM, 10 μM and 50 μM, in duplicate. Cells were incubated with compound containing media for three days in a standard 5% CO2 tissue culture incubator. Cell growth was assessed after 3 days using the DNA dye binding assay, as originally described by LaBarca and Paigen. Relative growth was independently calculated for each cell line, based on DNA content from corresponding cells grown in control media plus diluent (DMSO). […] The following day media was removed and replaced with drug containing media.
# Over 190 compounds were screened for their ability to inhibit growth and/or induce cell death in established cancer cell lines.
# select cancer cell lines = assay: Cellular IC50 of NSAAH library (Table 3); type: cell-based
# Protocol: as §1
# hRR (hRRM1 and hRRM2) [4] = molecular target: T1, hRR (hRRM1 and hRRM2); conditions: read-out: Cell-Free IC50; NSAAH library against hRR
# Protocol: as §2, §3
smiles,measurement,setting,value
"O=C(CCCCCCCCC(=O)N/N=C/c1c(O)ccc2ccccc12)N/N=C/c1c(O)ccc2ccccc12 [compound 4, N′1,N′10-bis((E)-(2-hydroxynaphthalenyl)methylene) decanedihydrazide]",IC50,hRR (hRRM1 and hRRM2) [1],39.8 ± 0.9 µM
same,IC50,"RR; 1 μM, sub-column 1 μM",0.674 µM
same,IC50,"RR; 10 μM, sub-column 10 μM",0.792 µM
same,IC50,[2],0.06 to 2 µM
same,IC50,"[3]; set of four cell lines, 3 days",1 to 10 µM
O=C(c1ccccc1O)n1cc(-c2c(O)ccc3ccccc23)nn1,IC50,hRR (hRRM1 and hRRM2) [1],8.1 µM
same,Cellular IC50,select cancer cell lines,No cytotoxicity
O=C(N/N=C/c1c[nH]c2ccc([N+](=O)[O-])cc12)c1ccccc1O,Cellular IC50,select cancer cell lines,No cytotoxicity
CCOC(=O)C(NC(=O)CN[C@H]1CCCc2sccc21)C(=O)OCC,In Cell IC50 (μM),[2],ne^b
OCc1ccccc1-n1cc(-c2ccc3cc(O)ccc3c2)nn1,IC50,hRR (hRRM1 and hRRM2) [1],607 µM
same,Cellular IC50,select cancer cell lines,No cytotoxicity
O=C(N/N=C/c1c[nH]c2ccc(O)cc12)c1ccccc1O,IC50,select cancer cell lines,> 10 µM
CCCCCCCCCCCCCCNC(=O)[C@@H](N)CCN,In Cell IC50 (μM),[2],ne
O=[N+]([O-])c1ccc(S(=O)(=O)N/N=C/c2c(O)ccc3ccccc23)cc1,Cellular IC50,select cancer cell lines,No cytotoxicity
O=C(N/N=C/c1cc2ccccc2cc1O)c1ccccc1O,IC50,select cancer cell lines,> 10 µM
O=c1nc(-n2cc(-c3ccc4cc(O)ccc4c3)nn2)cc[nH]1,IC50,hRR (hRRM1 and hRRM2) [1],269 µM
same,Cellular IC50,select cancer cell lines,No cytotoxicity
CCOC(=O)C[C@@H](CC(=O)NCCN[C@H](C)c1ccc(O)c(C(=O)OC)c1)OC(C)=O,In Cell IC50 (μM),[2],ne^b
CC1(C)C2CC(=O)C1C(CS(=O)(=O)N/N=C/c1c(O)ccc3ccccc13)C2 (stereo not drawn),IC50,hRR (hRRM1 and hRRM2) [4],298 µM
same,Cellular IC50,select cancer cell lines,No cytotoxicity
Cc1ccc(S(=O)(=O)N/N=C/c2c(O)ccc3ccccc23)cc1,IC50,hRR (hRRM1 and hRRM2) [4],6.8 µM
same,Cellular IC50,select cancer cell lines,No cytotoxicity
OC(COc1ccc(OCC(O)CN2CCN(C3c4ccccc4-c4ccccc43)CC2)cc1)CN1CCN(C2c3ccccc3-c3ccccc32)CC1 (stereo not drawn) [compound 2],IC50,[2],3 to 8 µM
same,IC50,[3],1 to 10 µM
same,inhibition at 10 µM,[3]; read-out: growth inhibition,~100%
Oc1ccc2cc(-c3cn(-c4ccc5[nH]ccc5c4)nn3)ccc2c1,Cellular IC50,select cancer cell lines,No cytotoxicity
CNCC(=O)N[C@@H](CCCNC(=N)N)C(=O)N[C@H](C(=O)NC(Cc1ccc(O)cc1)C(=O)N[C@H](C(=O)N[C@@H](Cc1cnc[nH]1)C(=O)O)C(C)C)C(C)C (stereo partly drawn) [compound 9] (H-[Sar]RV[ξY]VH-OH),In Cell IC50 (μM),[2],non-toxic
Cc1c(-n2cc(-c3ccc4cc(O)ccc4c3)nn2)c(=O)n(-c2ccccc2)n1C,IC50,hRR (hRRM1 and hRRM2) [1],31.3 µM
same,Cellular IC50,select cancer cell lines,No cytotoxicity
O=C(Nc1ccccc1C(=O)O)c1ccc2ccccc2n1,IC50,hRR (hRRM1 and hRRM2) [1],15.3 µM
same,Cellular IC50,select cancer cell lines,No cytotoxicity
O=c1oc(-c2ccccc2-c2ccccc2-c2nc3ccccc3c(=O)o2)nc2ccccc12,IC50,hRR (hRRM1 and hRRM2) [1],40.2 µM
same,Cellular IC50,select cancer cell lines,No cytotoxicity
Cc1ccc(C(=O)N/N=C/c2c(O)ccc3ccccc23)cc1,IC50,hRR (hRRM1 and hRRM2) [1],86.8 µM
same,Cellular IC50,select cancer cell lines,No cytotoxicity
Nc1ccc(C(=O)N/N=C/c2c(O)ccc3ccccc23)cc1Cl,IC50,select cancer cell lines,> 10 µM
COc1cc(Br)ccc1C(=O)N/N=C/c1c(O)ccc2ccccc12,IC50,select cancer cell lines,> 10 µM
CCC(C)(C)c1ccc(OCCCCNC(=O)c2cc(Oc3ccc([N+](=O)[O-])cc3)c3ccccc3c2O)c(C(C)(C)CC)c1,In Cell IC50 (μM),[2],ne^b
Nc1ccccc1C(=O)N/N=C/c1c(O)ccc2ccccc12,Cellular IC50,select cancer cell lines,No cytotoxicity
CCCCCCCCCCCCCCCC(=O)N[C@@H](CCCCN)C(=O)N[C@@H](CCCCN)C(=O)OC,In Cell IC50 (μM),[2],ne
COc1ccc(C(=O)N/N=C/c2c(O)ccc3ccccc23)cc1,IC50,hRR (hRRM1 and hRRM2) [1],94.1 µM
same,IC50,select cancer cell lines,> 10 µM
O=C1C=Cc2cc(C3=NC4C=CC=CC4S(=O)(=O)N3)c(=O)oc2C1 (stereo not drawn),IC50,hRR (hRRM1 and hRRM2) [1],13.2 µM
same,Cellular IC50,select cancer cell lines,No cytotoxicity
O=C(O)c1ccccc1-c1ccccc1C(=O)c1ccc2ccccc2n1,IC50,hRR (hRRM1 and hRRM2) [1],3.8 µM
same,Cellular IC50,select cancer cell lines,No cytotoxicity
CN(C)c1ccc(C(=O)N/N=C/c2c(O)ccc3ccccc23)cc1,IC50,select cancer cell lines,> 10 µM
O=[N+]([O-])c1ccc(N/N=C/c2c(O)ccc3ccccc23)cc1,IC50,select cancer cell lines,> 10 µM
Oc1ccc(CCn2cc(-c3ccc4cc(O)ccc4c3)nn2)cc1,Cellular IC50,select cancer cell lines,No cytotoxicity
Oc1ccc2ccccc2c1/C=N/NCc1ccccc1,IC50,select cancer cell lines,> 10 µM
O=C(N/N=C/c1c(O)ccc2ccccc12)c1ccc([N+](=O)[O-])c(Cl)c1,Cellular IC50,select cancer cell lines,No cytotoxicity
CC(NCCCCCO)c1cc(OCc2ccccc2)cc(OCc2ccccc2)c1 (stereo not drawn),In Cell IC50 (μM),[2],non-toxic
Cc1cccc2c(/C=N/NC(=O)c3ccccc3O)c[nH]c12,Cellular IC50,select cancer cell lines,No cytotoxicity
COc1ccc(Br)cc1C(=O)N/N=C/c1c(O)ccc2ccccc12,IC50,select cancer cell lines,> 1 µM
O=S(=O)(Cc1ccccc1)N/N=C/c1c(O)ccc2ccccc12,Cellular IC50,select cancer cell lines,No cytotoxicity
CCCOc1ccc(C(=O)OCCN(CC)CC)cc1NS(=O)(=O)/C=C/c1ccccc1 [compound 8],In Cell IC50 (μM),[2],ne^b
CC(C)(NC(=O)CN1C(=O)c2ccccc2C1=O)C(=O)NCCCC[C@H](NC(=O)CC(O)(C(F)(F)F)C(F)(F)F)C(=O)O [compound 6],IC50,[2],30 µM
Oc1ccc2ccccc2c1/C=N/Nc1ccc(Br)cc1,IC50,select cancer cell lines,> 10 µM
COc1cc(C(=O)N/N=C/c2c(O)ccc3ccccc23)ccc1O,IC50,hRR (hRRM1 and hRRM2) [1],687 µM
same,Cellular IC50,select cancer cell lines,No cytotoxicity
O=C(N/N=C/c1c(O)ccc2ccccc12)c1cccnc1,IC50,hRR (hRRM1 and hRRM2) [4],5.3 µM
same,Cellular IC50,select cancer cell lines,No cytotoxicity
O=S(=O)(N/N=C/c1c(O)ccc2ccccc12)c1ccccc1,IC50,hRR (hRRM1 and hRRM2) [4],122 µM
same,IC50,select cancer cell lines,> 10 µM
O=C(N/N=C/c1c(O)ccc2ccccc12)OCc1ccccc1,Cellular IC50,select cancer cell lines,No cytotoxicity
O=C(N/N=C/c1ccc2cc(O)ccc2c1)c1ccccc1O,IC50,select cancer cell lines,> 10 µM
